Reference: article PMC10321576, “Cyclic peptides target the aromatic cage of a PHD-finger reader domain to modulate epigenetic protein function” (Chemical Science, 2023)
Peptide text beside a SMILES is read from it.

Assays:
full-length KDM7B = experiment: Pull-down from transfected HEK293T nuclear lysates; assay type: binding; conditions: 100-fold excess competitor
Protocol: HEK293T cells were transiently transfected with either a full-length wild-type KDM7B, or an aromatic cage inactivating mutant KDM7B (Y14A, W29A).[20]
Capture was performed with 1 μM probe incubated in pre-cleared lysate, recovered with streptavidin-conjugated magnetic beads, then washed and eluted by heating in denaturing solution. 100-fold excess OC9 or OC9 V10A were used as competitors. […] The upper left quadrant indicates >5-fold difference in recovered protein (based on T-test difference of mean log 2 (LFQ) values) and p-value threshold <0.05.

KDM7B PHD = target: T1, KDM7B PHD (Homo sapiens, UniProt Q9UPP1); experiment: BLI binding; conditions: read-out: BLI KD, KDM7B PHD-finger
T1 construct: KDM7B 1-66; made in house
T1 sequence (Q9UPP1 1-66 isoform Q9UPP1-2): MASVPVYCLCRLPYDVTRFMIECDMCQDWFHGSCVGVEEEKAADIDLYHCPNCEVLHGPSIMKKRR
Description: Figure S2. BLI for KDM7 proteins with cyclic peptides.
BLI traces for b inding to KDM7 protein domains immobilised by C-terminal His -tag on Ni -NTA
biosensors, against cyclic peptides. Response trace for each peptide concentration is represented by
a different colour, with the fitted curves overlaid in black.
concentration plotted, with 2-fold dilutions thereafter. Dual domain = PHD+JmjC. […]
against KDM7 and other protein domains. t1/2 = half life (0.693 / Koff)
(1 picture or pasted object on this page, not shown here)

KDM7B PHD-finger = target: T2, KDM7B PHD-finger (Homo sapiens, UniProt Q9UPP1); experiment: Protein NMR affinity assessment; assay type: binding; conditions: read-out: NMR pKD, KDM7B PHD-finger (converted)
T2 construct: KDM7B 1-66; His-tag (C); made in house
T2 sequence (Q9UPP1 1-66 isoform Q9UPP1-2): T1 sequence (Q9UPP1 1-66 isoform Q9UPP1-2)

SMILES | competition of OC9-Bt pull-down of KDM7B (full-length KDM7B) | Kd (KDM7B PHD) | Kd (KDM7B PHD-finger)
CC(C)C[C@@H]1NC(=O)[C@H](Cc2ccc(O)cc2)NC(=O)[C@H](Cc2ccc(O)cc2)NC(=O)CSC[C@@H](C(N)=O)NC(=O)[C@H]([C@@H](C)O)NC(=O)[C@H](CCCNC(=N)N)NC(=O)[C@H](Cc2ccccc2)NC(=O)[C@H](C)NC(=O)[C@H](CO)NC(=O)[C@@H]2CCCN2C(=O)[C@H](Cc2ccc(O)cc2)NC(=O)[C@@H]2CCCN2C(=O)[C@H](Cc2c[nH]cn2)NC(=O)[C@H]([C@@H](C)O)NC1=O [V10A] (HELM PEPTIDE1{[O=C(C[*:3])[*:2]].Y.Y.L.T.H.P.Y.P.S.A.F.R.T.C.[am]}$PEPTIDE1,PEPTIDE1,1:R3-15:R3$$$V2.0; C-terminus assumed) | did not reduce recovery so substantially |  | 
CC(C)C[C@@H]1NC(=O)[C@H](Cc2ccc(O)cc2)NC(=O)[C@H](Cc2ccc(O)cc2)NC(=O)CSC[C@@H](C(N)=O)NC(=O)[C@H]([C@@H](C)O)NC(=O)[C@H](CCCNC(=N)N)NC(=O)[C@H](Cc2ccccc2)NC(=O)[C@@H](C(C)C)NC(=O)[C@H](CO)NC(=O)[C@@H]2CCCN2C(=O)[C@H](Cc2ccc(O)cc2)NC(=O)[C@@H]2CCCN2C(=O)[C@H](Cc2c[nH]cn2)NC(=O)[C@H]([C@@H](C)O)NC1=O [OC9 V10DV] (HELM PEPTIDE1{[O=C(C[*:3])[*:2]].Y.Y.L.T.H.P.Y.P.S.[dV].F.R.T.C.[am]}$PEPTIDE1,PEPTIDE1,1:R3-15:R3$$$V2.0; C-terminus assumed) |  | > 10 µM | > 501 µM
